The values below come from ChEMBL document CHEMBL5678810.

For experiment [1], the target named is Serine/threonine-protein kinase 32A (Homo sapiens) (UniProt Q8WU08). In words: Inhibition of T7 bacteriophage fused human YANK1 at 10 uM by KINOMEscan analysis relative to control.
For experiment [2], the target named is Ribosomal protein S6 kinase alpha-2 (Homo sapiens) (UniProt Q15349). In words: Inhibition of T7 bacteriophage fused human N-terminal RSK3 Kinase domain-1 at 10 uM by KINOMEscan analysis relative to control.
The target in experiment [3] is Tyrosine-protein kinase receptor Tie-1 (Homo sapiens) (UniProt P35590). In words: Inhibition of T7 bacteriophage fused human TIE1 at 10 uM by KINOMEscan analysis relative to control.
Tyrosine-protein kinase receptor Tie-1 (Homo sapiens), sequence (P35590 whole entry, the tested form may be a part): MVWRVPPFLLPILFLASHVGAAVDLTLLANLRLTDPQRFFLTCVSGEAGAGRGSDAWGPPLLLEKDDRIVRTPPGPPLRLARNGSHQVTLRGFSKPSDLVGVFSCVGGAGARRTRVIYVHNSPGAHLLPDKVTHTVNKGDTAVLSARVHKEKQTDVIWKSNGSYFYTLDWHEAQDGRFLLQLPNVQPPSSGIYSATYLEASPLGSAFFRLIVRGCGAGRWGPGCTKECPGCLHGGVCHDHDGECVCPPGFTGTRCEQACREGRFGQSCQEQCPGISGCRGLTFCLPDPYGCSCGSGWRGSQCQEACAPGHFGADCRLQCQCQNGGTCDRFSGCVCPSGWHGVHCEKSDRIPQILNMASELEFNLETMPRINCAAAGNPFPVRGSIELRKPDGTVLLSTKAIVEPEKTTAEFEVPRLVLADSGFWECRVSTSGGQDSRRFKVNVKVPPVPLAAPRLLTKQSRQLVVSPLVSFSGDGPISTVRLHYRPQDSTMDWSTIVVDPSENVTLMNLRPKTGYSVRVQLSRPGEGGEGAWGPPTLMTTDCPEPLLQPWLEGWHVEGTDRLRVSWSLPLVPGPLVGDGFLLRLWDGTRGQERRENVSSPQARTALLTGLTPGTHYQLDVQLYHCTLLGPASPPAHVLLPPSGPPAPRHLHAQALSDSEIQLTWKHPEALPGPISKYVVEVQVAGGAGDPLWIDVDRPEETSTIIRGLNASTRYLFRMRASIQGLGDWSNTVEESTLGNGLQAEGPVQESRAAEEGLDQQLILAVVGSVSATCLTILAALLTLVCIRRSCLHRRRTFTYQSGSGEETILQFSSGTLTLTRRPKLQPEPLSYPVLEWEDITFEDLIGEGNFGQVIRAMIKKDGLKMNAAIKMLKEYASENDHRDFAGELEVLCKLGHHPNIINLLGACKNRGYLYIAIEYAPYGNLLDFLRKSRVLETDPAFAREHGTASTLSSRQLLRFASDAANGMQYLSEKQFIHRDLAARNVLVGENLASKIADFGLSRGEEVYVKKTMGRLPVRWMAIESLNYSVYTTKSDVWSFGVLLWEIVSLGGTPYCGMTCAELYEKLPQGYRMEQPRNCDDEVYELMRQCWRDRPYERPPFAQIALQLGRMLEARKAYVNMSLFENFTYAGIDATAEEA
The target of experiment [4] is T1, Serine/threonine-protein kinase TAO1 (Homo sapiens) (UniProt Q7L7X3).
T1 sequence (whole entry): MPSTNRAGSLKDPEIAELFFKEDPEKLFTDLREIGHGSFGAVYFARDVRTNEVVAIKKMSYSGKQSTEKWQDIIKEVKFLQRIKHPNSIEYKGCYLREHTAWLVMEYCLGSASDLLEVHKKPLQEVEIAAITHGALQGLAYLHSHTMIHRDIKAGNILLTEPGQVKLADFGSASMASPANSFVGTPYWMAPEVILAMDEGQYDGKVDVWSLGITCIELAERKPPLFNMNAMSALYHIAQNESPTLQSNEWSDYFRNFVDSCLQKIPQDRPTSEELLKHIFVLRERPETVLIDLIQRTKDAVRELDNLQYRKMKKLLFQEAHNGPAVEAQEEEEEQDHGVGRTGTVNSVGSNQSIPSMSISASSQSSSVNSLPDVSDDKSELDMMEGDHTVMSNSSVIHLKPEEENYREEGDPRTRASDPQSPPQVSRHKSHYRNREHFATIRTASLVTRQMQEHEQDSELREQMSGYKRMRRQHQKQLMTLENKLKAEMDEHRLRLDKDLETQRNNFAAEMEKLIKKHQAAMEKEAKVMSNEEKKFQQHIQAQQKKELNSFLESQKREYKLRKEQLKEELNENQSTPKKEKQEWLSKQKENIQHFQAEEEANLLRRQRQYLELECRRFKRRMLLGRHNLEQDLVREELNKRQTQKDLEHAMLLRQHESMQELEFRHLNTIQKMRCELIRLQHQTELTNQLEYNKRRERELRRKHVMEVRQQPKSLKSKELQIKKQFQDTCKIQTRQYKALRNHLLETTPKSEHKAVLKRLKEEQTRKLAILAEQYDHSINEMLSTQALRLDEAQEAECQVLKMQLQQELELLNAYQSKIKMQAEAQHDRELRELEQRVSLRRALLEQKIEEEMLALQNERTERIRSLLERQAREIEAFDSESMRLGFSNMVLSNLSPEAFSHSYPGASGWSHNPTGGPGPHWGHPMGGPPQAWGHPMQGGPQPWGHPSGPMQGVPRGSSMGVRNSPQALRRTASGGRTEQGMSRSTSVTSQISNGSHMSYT
In words: Inhibition of T7 bacteriophage fused human TAOK1 at 10 uM by KINOMEscan analysis relative to control.

For experiment [5], the target named is STE20-like serine/threonine-protein kinase (Homo sapiens) (UniProt Q9H2G2). In words: Inhibition of T7 bacteriophage fused human SLK at 10 uM by KINOMEscan analysis relative to control.
Experiment [6] has as its target T2, Serine/threonine-protein kinase TBK1 (Homo sapiens) (UniProt Q9UHD2).
T2 sequence (whole entry): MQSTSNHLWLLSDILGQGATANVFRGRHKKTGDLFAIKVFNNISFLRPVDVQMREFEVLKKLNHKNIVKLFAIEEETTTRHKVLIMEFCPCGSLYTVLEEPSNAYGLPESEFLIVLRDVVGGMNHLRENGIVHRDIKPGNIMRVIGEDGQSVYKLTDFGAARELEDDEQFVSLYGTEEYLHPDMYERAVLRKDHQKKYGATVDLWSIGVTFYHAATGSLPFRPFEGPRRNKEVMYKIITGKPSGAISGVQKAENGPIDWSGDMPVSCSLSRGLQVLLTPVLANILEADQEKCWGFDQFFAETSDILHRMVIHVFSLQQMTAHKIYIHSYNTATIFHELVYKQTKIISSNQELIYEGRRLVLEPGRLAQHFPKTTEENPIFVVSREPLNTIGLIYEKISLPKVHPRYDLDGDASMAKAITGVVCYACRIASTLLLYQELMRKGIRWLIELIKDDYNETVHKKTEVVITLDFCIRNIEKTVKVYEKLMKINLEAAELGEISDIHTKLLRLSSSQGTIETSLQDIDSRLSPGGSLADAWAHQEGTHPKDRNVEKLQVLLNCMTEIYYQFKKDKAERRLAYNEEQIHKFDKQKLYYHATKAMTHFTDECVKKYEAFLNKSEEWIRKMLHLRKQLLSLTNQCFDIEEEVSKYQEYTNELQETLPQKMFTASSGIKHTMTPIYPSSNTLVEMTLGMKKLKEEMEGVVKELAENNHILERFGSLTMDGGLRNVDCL
In words: Inhibition of T7 bacteriophage fused human TBK1 at 10 uM by KINOMEscan analysis relative to control.

The target in experiment [7] is Ribosomal protein S6 kinase beta-1 (Homo sapiens) (UniProt P23443). In words: Inhibition of T7 bacteriophage fused human S6K1 at 10 uM by KINOMEscan analysis relative to control.
Ribosomal protein S6 kinase beta-1 (Homo sapiens), sequence (P23443 whole entry, looked up, the tested form may be a part): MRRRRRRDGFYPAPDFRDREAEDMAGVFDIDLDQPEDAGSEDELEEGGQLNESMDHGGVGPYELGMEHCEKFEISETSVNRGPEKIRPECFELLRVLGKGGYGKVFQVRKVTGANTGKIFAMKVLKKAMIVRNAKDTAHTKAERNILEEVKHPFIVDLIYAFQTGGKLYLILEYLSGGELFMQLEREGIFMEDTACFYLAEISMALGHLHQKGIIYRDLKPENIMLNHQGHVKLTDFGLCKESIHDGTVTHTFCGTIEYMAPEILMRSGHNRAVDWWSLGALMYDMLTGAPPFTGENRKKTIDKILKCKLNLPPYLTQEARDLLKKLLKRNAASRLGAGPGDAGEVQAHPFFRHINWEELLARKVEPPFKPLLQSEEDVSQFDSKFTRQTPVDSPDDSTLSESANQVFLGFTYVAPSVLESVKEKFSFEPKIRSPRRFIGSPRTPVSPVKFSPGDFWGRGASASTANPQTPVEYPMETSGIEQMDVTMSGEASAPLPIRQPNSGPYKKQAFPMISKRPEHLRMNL
In experiment [8] the target is Serine/threonine-protein kinase 4 (Homo sapiens) (UniProt Q13043). In words: Inhibition of T7 bacteriophage fused human MST1 at 10 uM by KINOMEscan analysis relative to control; values are per cent of control.
Serine/threonine-protein kinase 4 (Homo sapiens), sequence (Q13043 whole entry, looked up, the tested form may be a part): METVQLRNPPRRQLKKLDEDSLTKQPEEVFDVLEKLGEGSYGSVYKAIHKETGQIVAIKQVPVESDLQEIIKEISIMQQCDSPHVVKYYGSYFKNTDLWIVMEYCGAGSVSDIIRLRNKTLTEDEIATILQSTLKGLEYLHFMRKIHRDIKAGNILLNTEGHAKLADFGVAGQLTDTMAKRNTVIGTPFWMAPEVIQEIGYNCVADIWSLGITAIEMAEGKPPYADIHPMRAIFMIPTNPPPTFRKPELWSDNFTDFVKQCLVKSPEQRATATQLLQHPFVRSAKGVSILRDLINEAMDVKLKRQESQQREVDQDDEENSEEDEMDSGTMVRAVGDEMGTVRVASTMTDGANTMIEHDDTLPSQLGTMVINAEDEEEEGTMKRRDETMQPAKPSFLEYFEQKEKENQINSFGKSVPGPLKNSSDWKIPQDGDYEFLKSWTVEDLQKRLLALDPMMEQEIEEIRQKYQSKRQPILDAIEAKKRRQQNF
The target of experiment [9] is STE20/SPS1-related proline-alanine-rich protein kinase (Homo sapiens) (UniProt Q9UEW8). In words: Inhibition of T7 bacteriophage fused human STK39 at 10 uM by KINOMEscan analysis relative to control.
Experiment [10] has as its target Wee1-like protein kinase 2 (Homo sapiens) (UniProt P0C1S8). In words: Inhibition of T7 bacteriophage fused human WEE2 at 10 uM by KINOMEscan analysis relative to control.
The target of experiment [11] is TGF-beta receptor type-2 (Homo sapiens) (UniProt P37173). In words: Inhibition of T7 bacteriophage fused human TGFBR2 at 10 uM by KINOMEscan analysis relative to control.
TGF-beta receptor type-2 (Homo sapiens), sequence (P37173 whole entry, the tested form may be a part): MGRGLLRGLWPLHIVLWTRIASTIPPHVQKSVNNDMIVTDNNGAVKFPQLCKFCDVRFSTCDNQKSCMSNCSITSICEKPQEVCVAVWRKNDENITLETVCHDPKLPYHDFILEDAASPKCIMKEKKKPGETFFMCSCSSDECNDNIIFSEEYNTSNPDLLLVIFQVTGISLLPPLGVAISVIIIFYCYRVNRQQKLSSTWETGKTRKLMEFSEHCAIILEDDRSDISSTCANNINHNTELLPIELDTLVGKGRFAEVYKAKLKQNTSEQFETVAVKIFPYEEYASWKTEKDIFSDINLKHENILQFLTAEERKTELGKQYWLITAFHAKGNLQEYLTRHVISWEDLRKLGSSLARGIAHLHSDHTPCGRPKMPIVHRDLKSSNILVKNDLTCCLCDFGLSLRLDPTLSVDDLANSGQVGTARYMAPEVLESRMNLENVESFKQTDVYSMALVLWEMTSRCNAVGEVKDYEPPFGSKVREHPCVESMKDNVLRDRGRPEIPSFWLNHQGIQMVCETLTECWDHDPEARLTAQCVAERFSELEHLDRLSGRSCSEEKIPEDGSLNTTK
Experiment [12] has as its target Mitogen-activated protein kinase kinase kinase 20 (Homo sapiens) (UniProt Q9NYL2). In words: Inhibition of T7 bacteriophage fused human ZAK at 10 uM by KINOMEscan analysis relative to control.

Wee1-like protein kinase 2 (Homo sapiens), sequence (P0C1S8 whole entry, looked up, the tested form may be a part): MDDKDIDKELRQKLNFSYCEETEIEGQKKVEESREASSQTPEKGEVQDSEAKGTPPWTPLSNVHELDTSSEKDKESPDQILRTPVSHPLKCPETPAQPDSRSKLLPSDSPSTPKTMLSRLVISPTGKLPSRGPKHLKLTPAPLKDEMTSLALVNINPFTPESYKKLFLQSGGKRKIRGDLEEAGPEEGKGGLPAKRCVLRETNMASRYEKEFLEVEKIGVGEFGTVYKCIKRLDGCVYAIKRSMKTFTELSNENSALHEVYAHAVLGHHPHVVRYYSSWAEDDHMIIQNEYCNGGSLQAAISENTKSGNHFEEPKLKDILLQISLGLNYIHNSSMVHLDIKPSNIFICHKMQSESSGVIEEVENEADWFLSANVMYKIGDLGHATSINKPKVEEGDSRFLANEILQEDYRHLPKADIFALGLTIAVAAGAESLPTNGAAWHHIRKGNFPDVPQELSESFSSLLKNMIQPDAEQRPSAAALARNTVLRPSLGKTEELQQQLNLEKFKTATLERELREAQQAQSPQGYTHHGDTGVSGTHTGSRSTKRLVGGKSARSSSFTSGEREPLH
Mitogen-activated protein kinase kinase kinase 20 (Homo sapiens), sequence (Q9NYL2 2-800 limits assumed): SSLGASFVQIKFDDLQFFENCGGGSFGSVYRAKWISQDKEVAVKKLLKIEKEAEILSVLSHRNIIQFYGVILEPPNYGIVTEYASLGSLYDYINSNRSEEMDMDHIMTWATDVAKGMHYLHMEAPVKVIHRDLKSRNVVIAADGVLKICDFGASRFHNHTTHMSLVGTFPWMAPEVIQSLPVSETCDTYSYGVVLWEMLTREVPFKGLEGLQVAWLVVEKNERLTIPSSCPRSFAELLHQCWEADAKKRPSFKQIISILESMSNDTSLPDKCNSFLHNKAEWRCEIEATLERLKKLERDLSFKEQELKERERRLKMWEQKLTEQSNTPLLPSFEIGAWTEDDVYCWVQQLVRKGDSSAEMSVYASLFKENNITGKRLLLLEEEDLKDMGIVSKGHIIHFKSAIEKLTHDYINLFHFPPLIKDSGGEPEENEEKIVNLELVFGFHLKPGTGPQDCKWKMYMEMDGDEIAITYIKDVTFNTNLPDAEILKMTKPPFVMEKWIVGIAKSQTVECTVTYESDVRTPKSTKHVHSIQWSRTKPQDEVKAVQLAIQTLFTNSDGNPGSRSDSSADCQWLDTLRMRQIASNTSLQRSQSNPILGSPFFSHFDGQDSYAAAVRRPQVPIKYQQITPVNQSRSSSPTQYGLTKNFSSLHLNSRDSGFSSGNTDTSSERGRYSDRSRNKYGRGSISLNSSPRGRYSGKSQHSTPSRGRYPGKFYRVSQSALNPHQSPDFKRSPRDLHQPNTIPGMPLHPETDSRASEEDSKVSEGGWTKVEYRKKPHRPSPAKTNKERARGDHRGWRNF
Serine/threonine-protein kinase 32A (Homo sapiens), sequence (Q8WU08 whole entry, the tested form may be a part): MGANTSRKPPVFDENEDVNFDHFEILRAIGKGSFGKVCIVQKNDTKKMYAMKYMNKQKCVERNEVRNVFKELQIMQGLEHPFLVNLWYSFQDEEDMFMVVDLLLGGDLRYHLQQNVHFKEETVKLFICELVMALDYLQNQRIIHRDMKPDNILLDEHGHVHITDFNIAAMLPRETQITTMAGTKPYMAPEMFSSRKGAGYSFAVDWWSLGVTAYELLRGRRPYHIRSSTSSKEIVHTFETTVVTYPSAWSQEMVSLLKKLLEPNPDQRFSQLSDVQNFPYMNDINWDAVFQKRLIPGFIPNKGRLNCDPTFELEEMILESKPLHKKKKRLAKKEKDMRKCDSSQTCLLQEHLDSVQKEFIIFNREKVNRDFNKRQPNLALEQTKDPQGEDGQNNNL

In the case of `COc1cc(N2CCC(N3CCN(C)CC3)CC2)ccc1Nc1ncc2c(n1)N(C)c1ccccc1C(=O)N2C`, the inhibition in experiment [1] stood at 100%; in [2], 83%; in experiment [3] it was 100%; in experiment [4], 28%; in [5], 100%; in experiment [6] it was 97%. In addition, the inhibition was 100% in experiment [7]; 39% in experiment [9]; 100% in [10]; 100% in experiment [11]; 99% in [12]. This compound displayed a residual activity in experiment [8] of 100%.

As to `COc1cc(C(=O)N2CCC(N3CCN(C)CC3)CC2)ccc1Nc1ncc2c(n1)N(C1CCCC1)c1ccccc1C(=O)N2C`, the inhibition in [1] came out at 100%; in experiment [2], 100%; in experiment [3], 100%; in experiment [4], 51%; in [5], 100%; in experiment [6], 100%. Also, the inhibition in experiment [7], in experiment [9], in experiment [10], in [11] and in experiment [12] was 100% each time. The same compound returned a residual activity in experiment [8] of 100%.

As for `CCOc1cc(C(=O)N2CCC(N3CCN(C)CC3)CC2)ccc1Nc1ncc2c(n1)N(C1CCCC1)c1ccccc1C(=O)N2C`, the inhibition in experiment [1] amounted to 100%; in experiment [2], 100%; in experiment [3], 100%; in experiment [4], 79%; in experiment [5], 100%; in experiment [6], 100%. The inhibition in experiment [7], in experiment [9], in experiment [10], in experiment [11] and in [12] was 100% in each case. This compound yielded a residual activity in [8] of 100%.

The inhibition is the relative decrease from the control value, in per cent. Broadly, the residual activity is the activity still measured, relative to the control. A high value points to a small loss of activity.
